Assay results as given in patent US20020035260A1, “4-aza-steroids” (Novopharm Limited, priority 1997, published 2002).
Values joined by “and” are separate entries in the source; they are usually repeats but may differ in a detail not shown here. Identical values can stand only once. Like-named read-outs stand apart in the source and are kept apart here.

How the values were obtained:
Type in all cases: biochemical
5-α-reductase II enzyme [1] = target: T1, 5-α-reductase II enzyme (Homo sapiens, UniProt P31213); assay: Human 5-α-reductase II enzyme assay (human prostate); details: Tris-citrate pH 5.0
T1 construct: Specimens of human prostates were quickly frozen in dry ice after collection and kept at −70° C. before isolation of the enzyme; from tissue; host or cells: human prostate specimens, particulate fraction
T1 sequence (P31213 1-254): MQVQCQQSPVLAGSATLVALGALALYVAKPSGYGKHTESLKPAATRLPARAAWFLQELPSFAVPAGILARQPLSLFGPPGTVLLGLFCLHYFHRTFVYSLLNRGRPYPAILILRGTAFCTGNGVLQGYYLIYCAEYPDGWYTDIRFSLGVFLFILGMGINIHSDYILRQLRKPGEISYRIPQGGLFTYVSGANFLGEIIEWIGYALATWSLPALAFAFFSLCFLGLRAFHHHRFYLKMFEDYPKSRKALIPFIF
Description: (§1) Biochemical Assays were carried out to determine the inhibitory activities of various compounds of the previous examples on 5-α-reductase I enzyme isolated from male rate prostate and 5-α-reductase II enzyme isolated from rat epididymus and human prostate. These procedures were carried out following published literature procedures (H. Takami et al., J. Med. Chem., 39, pp 5047-5052; Tehming Liang, Margaret A. Cascieri et al., Endocrinology, 117, pp 571-579). Brief descriptions are as follows:
(§2) Rat 5-α-reductase II enzyme assay: Epididymus, taken out during the isolation of the rat prostates during rat enzyme I assay, was stored at −70° C. Isolation of the enzyme and the assay were carried out following the procedure described above, except the reaction buffer used was 40 mM Tris-citrate, pH 4.5. The range of IC50 values for different test compounds obtained from different experiments is shown in Table 1 under the column, Rat Epididymus Enzyme II IC50.
(§3) Human 5-α-reductase II enzyme assay: Specimens of human prostates were quickly frozen in dry ice after collection and kept at −70° C. before isolation of the enzyme. Isolation of the enzyme and the assay were carried out following a similar procedure as for the isolation of rat 5-α-reductase II enzyme with some modifications. During the isolation of the enzyme, 50 μM NADPH was added to the homogenizing buffer as a stabilizer. The enzyme was stored in the homogenizing buffer containing 20% glycerol. The enzyme reaction buffer used as 40 mM Tris-citrate buffer, pH 5.0. The range of IC50 values for different test compounds obtained from different experiments is shown in Table 1 under the column, Human Prostate Enzyme II IC50.

5-α-reductase II enzyme [2] = target: T2, 5-α-reductase II enzyme (Rattus norvegicus, UniProt P31214); assay: Rat 5-α-reductase II enzyme assay (rat epididymus); details: range of IC50 values from different experiments; Tris-citrate pH 4.5
T2 construct: from tissue; host or cells: rat epididymis (Sprague Dawley), particulate fraction
T2 sequence (P31214 1-254): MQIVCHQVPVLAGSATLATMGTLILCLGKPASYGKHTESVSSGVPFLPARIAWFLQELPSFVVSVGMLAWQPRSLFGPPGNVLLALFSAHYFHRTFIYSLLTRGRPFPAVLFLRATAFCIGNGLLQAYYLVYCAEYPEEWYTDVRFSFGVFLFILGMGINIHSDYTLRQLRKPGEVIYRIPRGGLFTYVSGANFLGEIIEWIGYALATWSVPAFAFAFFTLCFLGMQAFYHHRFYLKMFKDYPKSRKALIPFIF
Description: as §1
(§4) Rat 5-α-reductase I enzyme assay. Prostates, removed from 16 young male Sprague dawley rats (each weighing about 300-400 g), were minced and homogenized at 0-4° C. in 3 tissue volumes of buffer (0.32 M sucrose, 1 mM dithiothreitol, and 20 mM phosphate buffer, pH 6.5) using a polytron homogenizer. The homogenate was centrifuged at 4° C. at 140,000 g for 1 hour. The resultant pellet, after washing with the homogenizing buffer was suspended in the same buffer and stored at −70° C. The assay was carried out in a final volume of 0.5 ml containing 20 mM phosphate buffer (pH 6.5), 1 mM dithiothreitol, 150 μM NADPH, 2 μM ^14C testosterone and the enzyme concentration (500 μg-1 mg) For conducting the inhibitory studies on a 5-α-reductase I, finasteride and other test compounds were added in 10 μl of ethanol to a concentration 10^−9 to 10^−5 with five to six points including control using duplicate for each point to the above reaction mixture. The incubations were done for 20 minutes at 37° C. The reactions were stopped by adding 2.0 ml of ethyl acetate containing testosterone, 5-α-dihydrotestosterone, and androstenedione (10 μg each). After centrifugation at 1000 g for 5 minutes, the upper ethyl acetate extract was transferred to a tube and then evaporated under nitrogen to dryness. The compounds were taken up in 50 μl of ethyl acetate and chromatographed on Whatman LK5DF silica GF TLC plates using ethyl acetate-cyclohexane (1:1). The respective TLC spots corresponding to testosterone and dihydrotestosterone (Rf value same as that of androstenedione) were scraped from the plate and taken in respective scintillation vials. They were counted in the Beckman scintillation counter model No. LS 6500 with counting efficiency of 95% for ^14C carbon. Finasteride was used as a known standard during all screening. The range of IC50 values for different test compounds obtained from different experiments is shown in Table 1 under the column, Rat Prostate Enzyme I IC50.
as §2

5-α-reductase I enzyme = target: T3, 5-α-reductase I enzyme (Rattus norvegicus, UniProt P24008); assay: Rat 5-α-reductase I enzyme assay (rat prostate); details: range of IC50 values from different experiments; pH 6.5, 2 μM 14C testosterone
T3 construct: Prostates, removed from 16 young male Sprague dawley rats (each weighing about 300-400 g), were minced and homogenized; from tissue; host or cells: rat prostate (Sprague Dawley), 140,000 g pellet
T3 sequence (P24008 1-259): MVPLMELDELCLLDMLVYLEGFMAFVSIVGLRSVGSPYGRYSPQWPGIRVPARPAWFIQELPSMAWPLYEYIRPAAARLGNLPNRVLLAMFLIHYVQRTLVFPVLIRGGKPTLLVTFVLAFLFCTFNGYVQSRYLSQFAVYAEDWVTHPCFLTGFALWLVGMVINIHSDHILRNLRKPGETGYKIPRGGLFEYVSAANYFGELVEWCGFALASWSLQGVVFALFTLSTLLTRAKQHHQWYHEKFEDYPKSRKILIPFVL
Description: as §1, §4

5-α-reductase type II = target: T4, 5-α-reductase type II (Homo sapiens, UniProt P31213); assay: Activity against 5-α-reductase type II; details: statement in words, compared with finasteride
T4 sequence (P31213 1-254): T1 sequence (P31213 1-254)
Description: as §2, §3

[3] = range of IC50 values from different experiments, read-out: Human Prostate Enzyme II IC50

Row | IC50 (5-α-reductase II enzyme [1]; [3]) [nM] | IC50 (5-α-reductase II enzyme [2]) | IC50 (5-α-reductase I enzyme) | SMILES | IC50 (5-α-reductase II enzyme [1]; Human Prostate Enzyme II IC50, range of IC50 values from different experiments) | activity against 5-α-reductase type II (5-α-reductase type II) | IC50 (5-α-reductase II enzyme [1]; read-out: Human Prostate Enzyme II IC50) [nM]
1 | 11.5 to 44 | 2.9 to 8.6 nM | 53 to 99 nM | CC(C)(C)NC(=O)[C@H]1CC[C@H]2[C@@H]3[C@H](Cl)C[C@H]4NC(=O)CC[C@]4(C)[C@H]3CC[C@]12C [1,2-Dihydro-7-α-chloro-finasteride, 1,2-dihydro-7-α-chloro-finasteride] | – | – | –
2 | 0.9 to 3.6 | 1.92 to 3.1 nM | 306 to 350 nM | CC(C)(C)NC(=O)[C@H]1CC[C@H]2[C@@H]3[C@H](Cl)C[C@H]4NC(=O)C=C[C@]4(C)[C@H]3CC[C@]12C [7-α-Chloro-finasteride, 7-α-chloro-finasteride] | – | considerably higher than that of finasteride itself | –
3 | 19 to 32 | – | – | CC(C)(C)NC(=O)[C@H]1CC[C@H]2[C@@H]3[C@H](N=[N+]=[N-])C[C@H]4NC(=O)C=C[C@]4(C)[C@H]3CC[C@]12C [7-α-Azido-finasteride, 7-α-azido-finasteride] | – | very high specific inhibitory activity | –
4 | 213 to 570 | – | 1500 to 4300 nM | Cc1ccc(S(=O)(=O)O[C@H]2C[C@H]3NC(=O)C=C[C@]3(C)[C@H]3CC[C@]4(C)[C@@H](C(=O)NC(C)(C)C)CC[C@H]4[C@H]23)cc1 [7-β-Tosyloxy-finasteride, 7-β-tosyloxy-finasteride] | – | – | –
5 | 536 to 755 | 567 to 891 nM | 453 to 492 nM | CC(C)(C)NC(=O)[C@H]1CC[C@H]2[C@@H]3[C@@H](O)C[C@H]4NC(=O)CC[C@]4(C)[C@H]3CC[C@]12C [1,2-Dihydro-7-β-hydroxy-finasteride, 1,2-dihydro-7-β-hydroxy-finasteride] | – | – | –
6 | – | – | 351 to 468 nM | CC(C)(C)NC(=O)[C@H]1C[C@@H](O)[C@H]2[C@@H]3CC[C@H]4NC(=O)CC[C@]4(C)[C@H]3CC[C@@]21C [1,2-Dihydro-15-β-hydroxy-finasteride, 1,2-dihydro-15β-hydroxy-finasteride] | – | – | –
7 | 62 to 64 | 106 nM | 811 to 1800 nM | CC(C)(C)NC(=O)C1CCC2C3C(CCC12C)C1(C)C=CC(=O)NC1C[C@@H]3O (stereo partly drawn) [7-β-hydroxy-finasteride] | – | – | –
8 | 50 to 59 | 640 nM | 805 to 853 nM | CC(C)(C)NC(=O)C1CC(O)C2C3CCC4NC(=O)C=CC4(C)C3CCC12C (stereo not drawn) [15-β-hydroxy-finasteride] | – | – | –
9 | 39 to 49.6 | 45 nM | 50 to 67 nM | CC(C)(C)NC(=O)[C@H]1CC=C2[C@@H]3CC[C@H]4NC(=O)C=C[C@]4(C)[C@H]3CC[C@@]21C [14,15-Dehydro-finasteride, 14,15-dehydro-finasteride] | – | – | –

Row | SMILES | IC50 (5-α-reductase II enzyme [1]; [3]) [nM] | IC50 (5-α-reductase II enzyme [2]) | IC50 (5-α-reductase I enzyme) | IC50 (5-α-reductase II enzyme [1]; Human Prostate Enzyme II IC50, range of IC50 values from different experiments) | activity against 5-α-reductase type II (5-α-reductase type II) | IC50 (5-α-reductase II enzyme [1]; read-out: Human Prostate Enzyme II IC50) [nM]
10 | CC(C)(C)NC(=O)C1CCC2C3CCC4NC(=O)C=CC4(C)C3CCC12C (stereo not drawn) [Finasteride, (5α, 17β)-(1,1-dimethyl-ethyl)-3-oxo-4-aza-androst-1-ene-17-carboxamide, reference compound] | – | 5.1 to 14.8 nM and 2.9 to 11.8 nM | 11 to 38 nM and 13 to 30 nM | 2.7 to 10.6 nM and 3.3 to 7 nM | – | –
11 | CC(=O)O[C@H]1C[C@H]2NC(=O)C=C[C@]2(C)[C@H]2CC[C@]3(C)[C@@H](C(=O)NC(C)(C)C)CC[C@H]3[C@H]12 [7-β-Acetoxy-finasteride, 7-β-acetoxy-finasteride] | 175 to 362 | 135 to 357 nM | 385 to 697 nM | – | – | –
12 | CC(=O)O[C@@H]1C[C@H](C(=O)NC(C)(C)C)[C@@]2(C)CC[C@H]3[C@@H](CC[C@H]4NC(=O)C=C[C@@]43C)[C@H]12 [15-β-Acetoxy-finasteride, 15-β-acetoxy-finasteride] | – | 1600 to 2700 nM | 4200 to 5700 nM | – | – | 2010
